Reference: US20250304623A1, “PEPTIDES FOR INTRACELLULAR DELIVERY” (UNIVERSIDADE DE SANTIAGO DE COMPOSTELA, priority 2022, published 2025)
Starred links: 1 amine or outer side, 2 acyl side, 3 side chain; linkers in the order of their positions; H or OH if unused. Residues, ends and D or L forms follow the SMILES beside them. Groups on a side chain read outwards from the residue. *: point of attachment. Glutaryl = O=C(CCCC(=O)[*:2])[*:1]; NHNH2 = NN*

Experiments:
Assay type in all cases: cell-based
Hela cells = test: RLuc pDNA delivery, robotic library screening, HeLa
Description: Cells were seeded in a 96 well plate the day before the experiment at a concentration of 60,000 cell/mL (100 μL/w) in DMEM+10% FBS+1% Gln-Abt. For robotic library screening, the delivery of pDNA encoding for the expression of Renilla luciferase gene (RLuc, pRL-CMV (Promega, #E2261)) in six different cell lines was performed. […] The mixture was shaken for 30 min at room temperature before the addition to the cells. The cell medium was aspirated, and cells were washed twice with PBS. Finally, 50 μL of the complex's solution were added to the cells and incubated for 4 h. After the incubation, the medium was replaced by 100 μL of fresh DMEM supplemented with 10% FBS. 72 hours after transfection the DMEM was removed, cells were washed once with HBSS and 90 μL of HBSS were added to each well. Cells were incubated at 37° C. for 30 minutes. Then basal luminescence levels were read in a plate reader. Immediately, 10 μL of coelenterazine h in HBSS were added to each well (5 μM final concentration) and cells were incubated at 37° C. for 10 minutes. Finally, the total luminescence measurement of the plates was performed. Amphiphile transfection efficiency was compared and normalized to Lipofectamine® 2000 efficiency (value of 1 in Tables 1-5 and 7; bold numbers). All experiments were done in triplicate.
(§1) Tables 1-7: RLuc (pDNA) or EGFP (mRNA) expression levels were normalized to Lipofectamine reagents (value=1) and expressed as fold-times signal increase. In the case of siRNA, the siRNA treated cells fluorescence was compared with siMOCK control fluorescence, while Cas9-RNP mediated knockout was measured against the fluorescence of untreated cells. In both siRNA and Cas9-RNP, values are expressed as % fluorescence reduction. Amphiphile concentration was 5 μM in all cases. All experiments were performed in triplicate.
(§2) Tables 8-13 show the mean (triplicates) luminescent intensity (RLU) measured after the transfection of RLuc pDNA by different amphiphiles at different concentrations in a variety of cell lines. Background luminescence values, accounted by untransfected control cells, were subtracted for processing.

[1] = system: ARPE19 cells expressing EGFP; test: EGFP-targeting siRNA delivery (GFP silencing vs siMOCK), ARPE19
Description: (§3) To generate an EGFP expressing HeLa cell line, HeLa cells were transfected with EGFP pDNA (pEGFP-C1, Clontech) and stable transfectants were selected with 400 μg/mL of G-418 (Millipore). Green clones were selected by epifluorescence microscopy and tested for EGFP expression stability through several passages. […] All other EGFP-expressing cell lines were obtained in a similar way from parent non-EGFP-expressing cell lines.
(§4) Cells expressing EGFP were seeded in a 96 well plate the day before the experiment at a concentration of 50,000 cell/mL (100 μL/w) in DMEM+10% FBS+1% Gln-Abt. For robotic library screening, the delivery of an EGFP-targeting siRNA (EGFP: enhanced green fluorescent protein, Ambion® Silencer® GFP Positive Control siRNA (siGFP) (AM4626)) in six different cell lines expressing EGFP was performed. […] The mixture was shaken for 30 min at room temperature (rt) before the addition to the cells. The cell medium was aspirated, and cells were washed twice with PBS. Finally, 50 μL of the solution of siRNA/amphiphile complexes were added to the cells and incubated for 4 h. After transfection, the medium was replaced by 100 μL of fresh DMEM supplemented with 10% FBS. The fluorescence knockdown was quantified after 72 h in a plate reader, by comparison with cells transfected with a non-targeting siRNA control (siMOCK, Silencer™ Negative Control No. 1 siRNA (siMOCK) (AM4611)). EGFP knockdown was compared with Lipofectamine® RNAiMAX silencing efficiency (30-60% depending on cell line, defined with a numeric value in the below tables). All experiments were done in triplicate.
as §1
(§5) Tables 20-25 show the mean (triplicates) percentage of GFP-silencing, accounted by fluorescence intensity decrease relative to a non-targeting siRNA (siMOCK) control, measured after the transfection of siRNA by different amphiphiles at different concentrations in a variety of cell lines. Background values, accounted by untreated control cells, were subtracted for processing.

[2] = system: Hek293 cells expressing EGFP; test: EGFP-targeting siRNA delivery (GFP silencing vs siMOCK), Hek293
Description: as §3, §4, §1, §5

A549 cells = test: RLuc pDNA delivery, robotic library screening, A549
Description: Cells were seeded in a 96 well plate the day before the experiment at a concentration of 60,000 cell/mL (100 μL/w) in DMEM+10% FBS+1% Gln-Abt. For robotic library screening, the delivery of pDNA encoding for the expression of Renilla luciferase gene (RLuc, pRL-CMV (Promega, #E2261)) in six different cell lines was performed. Amphihilic molecule stock solutions in DMSO were diluted with DMEM and freshly mixed with pDNA stock solutions in DMEM prior to transfection experiments, to afford several complexes at different amphiphile concentration (2-10 μM) while maintaining a constant final pDNA concentration of 2 ng/μL. The mixture was shaken for 30 min at room temperature before the addition to the cells. The cell medium was aspirated, and cells were washed twice with PBS. Finally, 50 μL of the complex's solution were added to the cells and incubated for 4 h. After the incubation, the medium was replaced by 100 μL of fresh DMEM supplemented with 10% FBS. 72 hours after transfection the DMEM was removed, cells were washed once with HBSS and 90 μL of HBSS were added to each well. Cells were incubated at 37° C. for 30 minutes. Then basal luminescence levels were read in a plate reader. Immediately, 10 μL of coelenterazine h in HBSS were added to each well (5 μM final concentration) and cells were incubated at 37° C. for 10 minutes. Finally, the total luminescence measurement of the plates was performed. Amphiphile transfection efficiency was compared and normalized to Lipofectamine® 2000 efficiency (value of 1 in Tables 1-5 and 7; bold numbers). All experiments were done in triplicate.
as §1, §2

| Molecule | mean luminescent intensity (RLuc pDNA) (Hela cells; HeLa, Petroselinyl, 10 μM) | mean luminescent intensity (RLuc pDNA) (Hela cells; Hela, Myristoleyl, 5 μM) | mean luminescent intensity (RLuc pDNA) (Hela cells; Hela, Myristoleyl, 10 μM) | mean luminescent intensity (RLuc pDNA) (Hela cells; Hela, Myristoleyl, 15 μM) | mean luminescent intensity (RLuc pDNA) (Hela cells; Hela, Palmitoleyl, 5 μM) | mean luminescent intensity (RLuc pDNA) (Hela cells; Hela, Petroselinyl, 5 μM) | mean luminescent intensity (RLuc pDNA) (Hela cells; Hela, Petroselinyl, 15 μM) | percentage of GFP-silencing relative to siMOCK ([1]; Dodecanal, 5 μM) | percentage of GFP-silencing relative to siMOCK ([1]; Myristoleyl, 10 μM) | percentage of GFP-silencing relative to siMOCK ([1]; Oleyl, 10 μM) | percentage of GFP-silencing relative to siMOCK ([1]; Oleyl, 15 μM) | percentage of GFP-silencing relative to siMOCK ([1]; Palmitoleyl, 10 μM) | percentage of GFP-silencing relative to siMOCK ([1]; Palmitoleyl, 15 μM) | percentage of GFP-silencing relative to siMOCK ([1]; Petroselinyl, 5 μM) | mean luminescent intensity (RLuc pDNA) (A549 cells; Myristoleyl, 5 μM) | mean luminescent intensity (RLuc pDNA) (A549 cells; Myristoleyl, 10 μM) | mean luminescent intensity (RLuc pDNA) (A549 cells; Oleyl, 5 μM) | mean luminescent intensity (RLuc pDNA) (A549 cells; Palmitoleyl, 5 μM) | mean luminescent intensity (RLuc pDNA) (A549 cells; Palmitoleyl, 10 μM) | mean luminescent intensity (RLuc pDNA) (A549 cells; Palmitoleyl, 15 μM) | further results |
| --- | --- | --- | --- | --- | --- | --- | --- | --- | --- | --- | --- | --- | --- | --- | --- | --- | --- | --- | --- | --- | --- |
| CC(=O)N[C@@H](CCCNC(=N)N)C(=O)N[C@@H](CCCCNC(=O)CCCC(=O)NN)C(=O)N[C@@H](Cc1c[nH]cn1)C(=O)N[C@@H](CCCNC(=N)N)C(=O)N[C@@H](CCCCNC(=O)CCCC(=O)NN)C(=O)N[C@@H](CCCCNC(=O)CCCC(=O)NN)C(=O)N[C@@H](Cc1c[nH]cn1)C(N)=O [7.3(L-H), Ac-RK*HRK*K*H-NH2] (Ac-RK([Glutaryl-NHNH2])HRK([Glutaryl-NHNH2])K([Glutaryl-NHNH2])H-NH2) | 107063 RLU | 122581 RLU | 115599 RLU | 25022 RLU | 226412 RLU | 282134 RLU | 13233 RLU | 10% | 45% | 47% | 46% | 65% | 40% | 5% | 184442 RLU | 147873 RLU | 4031 RLU | 109148 RLU | 140079 RLU | 105643 RLU | mean luminescent intensity (RLuc pDNA) (Hela cells; Hela, Palmitoleyl, 10 μM): 180751 RLU; mean luminescent intensity (RLuc pDNA) (Hela cells; Hela, Palmitoleyl, 15 μM): 31589 RLU; percentage of GFP-silencing relative to siMOCK ([1]; Myristoleyl, 5 μM): 45%; percentage of GFP-silencing relative to siMOCK ([1]; Oleyl, 5 μM): 15%; percentage of GFP-silencing relative to siMOCK ([1]; Palmitoleyl, 5 μM): 49%; percentage of GFP-silencing relative to siMOCK ([2]; Dodecanal, 15 μM): 14%; percentage of GFP-silencing relative to siMOCK ([2]; Myristoleyl, 5 μM): −3%; percentage of GFP-silencing relative to siMOCK ([2]; Palmitoleyl, 10 μM): 6%; mean luminescent intensity (RLuc pDNA) (A549 cells; Myristoleyl, 15 μM): 31551 RLU; mean luminescent intensity (RLuc pDNA) (A549 cells; Petroselinyl, 5 μM): 94011 RLU; mean luminescent intensity (RLuc pDNA) (A549 cells; Petroselinyl, 10 μM): 139603 RLU; mean luminescent intensity (RLuc pDNA) (A549 cells; Petroselinyl, 15 μM): 6719 RLU; pDNA delivery, times better than Lipofectamine 2000 (A549 cells; palmitoleyl or petroselinyl aldehydes): 30 times |
| Ac-RHLK*RHK*RRLK*RH-NH2 (Ac-RHLKRHKRRLKRH-NH2; not fully specified (residues 4, 7, 11); printed as Ac-RHLK*RHK*RRLK*RH-NH2; also: linker on K* not given here) [13(3His)] | 115599 RLU | −294 RLU | −246 RLU | −405 RLU | 8590 RLU | 122581 RLU | 25022 RLU | 16% | 42% | 43% | 41% | 49% | 25% | 13% | 37751 RLU | 2256 RLU | 25257 RLU | 18924 RLU | 2866 RLU | 2990 RLU | mean luminescent intensity (RLuc pDNA) (Hela cells; HeLa, Oleyl, 5 μM): 226412 RLU; mean luminescent intensity (RLuc pDNA) (Hela cells; Hela, Oleyl, 10 μM): 180751 RLU; mean luminescent intensity (RLuc pDNA) (Hela cells; Hela, Oleyl, 15 μM): 31589 RLU; percentage of GFP-silencing relative to siMOCK ([1]; Dodecanal, 15 μM): 22%; percentage of GFP-silencing relative to siMOCK ([1]; Myristoleyl, 15 μM): 30%; percentage of GFP-silencing relative to siMOCK ([1]; Petroselinyl, 10 μM): 56%; percentage of GFP-silencing relative to siMOCK ([1]; Petroselinyl, 15 μM): 30%; percentage of GFP-silencing relative to siMOCK ([2]; Dodecanal, 10 μM): −11%; percentage of GFP-silencing relative to siMOCK ([2]; Myristoleyl, 15 μM): 11%; percentage of GFP-silencing relative to siMOCK ([2]; Oleyl, 10 μM): 2%; mean luminescent intensity (RLuc pDNA) (A549 cells; Dodecanal, 15 μM): 1261 RLU; mean luminescent intensity (RLuc pDNA) (A549 cells; Petroselinyl, 5 μM): 5271 RLU; mean luminescent intensity (RLuc pDNA) (A549 cells; Petroselinyl, 15 μM): 8545 RLU |
| Ac-RRLK*RLLRRLK*RL-NH2 (Ac-RRLK(NHNH2)RLLRRLK(NHNH2)RL-NH2; not fully specified; printed as Ac-RRLK*RLLRRLK*RL-NH2; also: K*4,K*11: native or modified lysine (ε-amide to a linker)) [Peptide 13.2] |  |  |  |  |  |  |  |  |  | 22% | 1% |  |  |  |  |  | 2368 RLU |  |  |  | percentage of GFP-silencing relative to siMOCK ([2]; Oleyl, 10 μM): −7%; percentage of GFP-silencing relative to siMOCK ([2]; Oleyl, 15 μM): 17%; mean luminescent intensity (RLuc pDNA) (A549 cells; Oleyl, 10 μM): 1152 RLU; mean luminescent intensity (RLuc pDNA) (A549 cells; Oleyl, 15 μM): 1367 RLU |
